Reference: PubChem BioAssay AID248 (DTP/NCI, 2004)
“And” between values parts separate entries of the source, which are not always exact repeats. Identical values can stand only once. Toxic doses and inconclusive results are not listed. Rule as the data show it: active = T/C of 150% or more; inactive = T/C below 125%.

System: L1210 leukemia ip in BDF1 mice, survival T/C
Experiment: NCI In Vivo Anticancer Drug Screen. Data for tumor model L1210 Leukemia (intraperitoneal) in B6D2F1 (BDF1) mice
Conditions: endpoint: mean survival time, higher = longer survival
Procedure, shortened: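 Each compound was tested against a transplantable tumor grown in mice. The endpoint was survival, with treated animals benchmarked against vehicle controls as a simple ratio.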

[1] = dose: 100.0 mg/kg/injection, schedule: Q04DX003 (ip), vehicle: other
[2] = dose: 200.0 mg/kg/injection, schedule: Q04DX003 (ip), vehicle: other
[3] = dose: 400.0 mg/kg/injection, schedule: Q04DX003 (ip), vehicle: other
[4] = dose: 50.0 mg/kg/injection, schedule: Q04DX003 (ip), vehicle: other
[5] = dose: 100.0 mg/kg/injection, schedule: Q01DX009 (ip), vehicle: saline with Tween-80
[6] = dose: 200.0 mg/kg/injection, schedule: Q01DX009 (ip), vehicle: saline with Tween-80
[7] = dose: 100.0 mg/kg/injection, schedule: Q04DX003 (ip), vehicle: saline
[8] = dose: 100.0 mg/kg/injection, schedule: Q04DX003 (ip), vehicle: saline with Tween-80
[9] = dose: 400.0 mg/kg/injection, schedule: Q04DX003 (ip), vehicle: saline with Tween-80
[10] = dose: 100.0 mg/kg/injection, schedule: Q04DX003 (ip), vehicle: Klucel (hydroxypropylcellulose) (HPC)
[11] = dose: 200.0 mg/kg/injection, schedule: Q04DX003 (ip), vehicle: Klucel (hydroxypropylcellulose) (HPC)
[12] = dose: 100.0 mg/kg/injection, schedule: Q01DX009 (ip), vehicle: Klucel (hydroxypropylcellulose) (HPC)
[13] = dose: 200.0 mg/kg/injection, schedule: Q01DX009 (ip), vehicle: Klucel (hydroxypropylcellulose) (HPC)
[14] = dose: 100.0 mg/kg/injection, schedule: Q01DX001 (ip), vehicle: saline

Measured: T/C

CCCCC1C2CCCCC2CC2CCCCC21 (stereo unspecified)
inactive: dose: 100.0 mg/kg/injection, schedule: Q01DX001 (ip), vehicle: saline with Tween-80 98 % of control | dose: 200.0 mg/kg/injection, schedule: Q01DX001 (ip), vehicle: saline with Tween-80 101 % of control | dose: 400.0 mg/kg/injection, schedule: Q01DX001 (ip), vehicle: saline with Tween-80 98 % of control

CN(C)c1ccc(C(=O)O)cc1
inactive: dose: 100.0 mg/kg/injection, schedule: Q01DX009 (ip), vehicle: other 93 % of control | [1] 104 % of control | dose: 200.0 mg/kg/injection, schedule: Q01DX009 (ip), vehicle: other 87 % of control | [2] 107 % of control | dose: 400.0 mg/kg/injection, schedule: Q01DX009 (ip), vehicle: other 96 % of control | [3] 95 % of control

C/C(=C\C(=O)O)Cc1ccccc1 (tested in a mixture with another compound)
inactive: [4] 106 % of control | [1] 115 % of control | [2] 114 % of control | [3] 103 % of control

COc1cc(/C=N\NC(=O)CC#N)cc(OC)c1OC
inactive: dose: 50.0 mg/kg/injection, schedule: Q01DX009 (ip), vehicle: saline with Tween-80 87 % of control | [5] 87 % of control | [6] 94 % of control

CC(C)=CCC/C(C)=C\CN=C1C=CC(=O)O1
inactive: dose: 25.0 mg/kg/injection, schedule: Q01DX009 (ip), vehicle: saline + alcohol 97 % of control | dose: 25.0 mg/kg/injection, schedule: Q04DX003 (ip), vehicle: other 107 % of control | dose: 50.0 mg/kg/injection, schedule: Q01DX009 (ip), vehicle: saline + alcohol 90 % of control | [4] 107 % of control | [1] 121 % of control | [7] 91 % of control

CC(OC(=O)Nc1ccccc1)C(=O)O (stereo unspecified)
inactive: [5] 92 % of control | [8] 96 % of control | [6] 92 % of control | dose: 200.0 mg/kg/injection, schedule: Q04DX003 (ip), vehicle: saline with Tween-80 101 % of control | dose: 400.0 mg/kg/injection, schedule: Q01DX009 (ip), vehicle: saline with Tween-80 95 % of control | [9] 96 % of control

CCN(CC)Cc1cc(Nc2ncnc3[nH]c(C)c(C)c23)ccc1O
inactive: dose: 12.5 mg/kg/injection, schedule: Q04DX002 (ip), vehicle: saline with Tween-80 98 % of control | dose: 25.0 mg/kg/injection, schedule: Q04DX002 (ip), vehicle: saline with Tween-80 94 % of control | dose: 50.0 mg/kg/injection, schedule: Q04DX002 (ip), vehicle: saline with Tween-80 88 % of control

O=C(O)C(Oc1ccc(Cl)cc1)c1ccc(Cl)cc1 (stereo unspecified)
inactive: [10] 96 % of control | [11] 91 % of control

Cc1c(C)c(C)c(CCl)c(CCl)c1C
inactive: dose: 100.0 mg/kg/injection, schedule: Q04DX002 (ip), vehicle: Klucel (hydroxypropylcellulose) (HPC) 97 % of control | dose: 200.0 mg/kg/injection, schedule: Q04DX002 (ip), vehicle: Klucel (hydroxypropylcellulose) (HPC) 90 % of control | dose: 400.0 mg/kg/injection, schedule: Q04DX002 (ip), vehicle: Klucel (hydroxypropylcellulose) (HPC) 122 % of control

COC(=O)c1cccc(-c2cccc(C(=O)OC)c2)c1
inactive: dose: 100.0 mg/kg/injection, schedule: Q01DX001 (ip), vehicle: carboxymethylcellulose (CMC) 96 % of control | dose: 200.0 mg/kg/injection, schedule: Q01DX001 (ip), vehicle: carboxymethylcellulose (CMC) 96 % of control | dose: 400.0 mg/kg/injection, schedule: Q01DX001 (ip), vehicle: carboxymethylcellulose (CMC) 100 % of control

COc1cc2cc3c4cc(OC)c(OC)cc4cc[n+]3c(/C=C/c3cccc([N+](=O)[O-])c3)c2cc1OC
inactive: dose: 100.0 mg/kg/injection, schedule: Q04DX002 (ip), vehicle: carboxymethylcellulose (CMC) 113 % of control | dose: 100.0 mg/kg/injection, schedule: Q04DX002 (ip), vehicle: other 97 % of control and 105 % of control and 109 % of control | [1] 107 % of control | dose: 200.0 mg/kg/injection, schedule: Q04DX002 (ip), vehicle: carboxymethylcellulose (CMC) 109 % of control | dose: 200.0 mg/kg/injection, schedule: Q04DX002 (ip), vehicle: other 94 % of control and 104 % of control and 123 % of control | [2] 119 % of control | dose: 400.0 mg/kg/injection, schedule: Q04DX002 (ip), vehicle: carboxymethylcellulose (CMC) 109 % of control | dose: 400.0 mg/kg/injection, schedule: Q04DX002 (ip), vehicle: other 108 % of control and 119 % of control | [3] 105 % of control | dose: 800.0 mg/kg/injection, schedule: Q04DX002 (ip), vehicle: other 112 % of control

c1ccc([P+](Cc2cccc3c2Cc2ccccc2-3)(c2ccccc2)c2ccccc2)cc1
inactive: dose: 15.0 mg/kg/injection, schedule: Q01DX001 (ip), vehicle: carboxymethylcellulose (CMC) 104 % of control

O=c1cc(CSCC(O)CO)[nH]c(=O)[nH]1 (stereo unspecified)
inactive: [7] 98 % of control | dose: 200.0 mg/kg/injection, schedule: Q04DX003 (ip), vehicle: saline 98 % of control | dose: 400.0 mg/kg/injection, schedule: Q04DX003 (ip), vehicle: saline 96 % of control

Cc1cc(C(C)C)cc(C(C)C)c1
inactive: [12] 96 % of control | [10] 94 % of control | [13] 95 % of control | [11] 102 % of control | dose: 400.0 mg/kg/injection, schedule: Q04DX003 (ip), vehicle: Klucel (hydroxypropylcellulose) (HPC) 94 % of control

CCOC(=O)c1c(C)c(-c2ccccc2F)nc2ccccc12
inactive: [14] 103 % of control | dose: 200.0 mg/kg/injection, schedule: Q01DX001 (ip), vehicle: saline 94 % of control

CCCC(=O)Nc1cccc(OC(=O)NC)c1
inactive: [8] 90 % of control | [9] 88 % of control

CCSc1ncnc2nc[nH]c12
inactive: dose: 75.0 mg/kg/injection, schedule: Q01DX001 (ip), vehicle: acetone 105 % of control | dose: 150.0 mg/kg/injection, schedule: Q01DX001 (ip), vehicle: acetone 105 % of control | dose: 300.0 mg/kg/injection, schedule: Q01DX001 (ip), vehicle: acetone 105 % of control

OC(CNc1ccnc2cc(Cl)ccc12)CNC1CCCCC1 (stereo unspecified)
inactive: dose: 75.0 mg/kg/injection, schedule: Q01DX001 (ip), vehicle: other 97 % of control

Cc1cc(C(=O)O)c(C)n1-c1ccccc1C(=O)O
inactive: dose: 50.0 mg/kg/injection, schedule: Q01DX009 (ip), vehicle: Klucel (hydroxypropylcellulose) (HPC) 102 % of control | dose: 100.0 mg/kg/injection, schedule: Q01DX001 (ip), vehicle: Klucel (hydroxypropylcellulose) (HPC) 103 % of control | [12] 89 % of control | dose: 200.0 mg/kg/injection, schedule: Q01DX001 (ip), vehicle: Klucel (hydroxypropylcellulose) (HPC) 92 % of control | [13] 93 % of control | dose: 400.0 mg/kg/injection, schedule: Q01DX001 (ip), vehicle: Klucel (hydroxypropylcellulose) (HPC) 94 % of control

CCC(C)NC(=O)/C=C\C(=O)O (stereo unspecified)
inactive: dose: 100.0 mg/kg/injection, schedule: Q04DX002 (ip), vehicle: saline with Tween-80 95 % of control | dose: 200.0 mg/kg/injection, schedule: Q04DX002 (ip), vehicle: saline with Tween-80 92 % of control | dose: 400.0 mg/kg/injection, schedule: Q04DX002 (ip), vehicle: saline with Tween-80 100 % of control

O=C1CCC(=O)N1c1ccccc1Cl
inactive: dose: 87.5 mg/kg/injection, schedule: Q01DX001 (ip), vehicle: Klucel (hydroxypropylcellulose) (HPC) 102 % of control | dose: 175.0 mg/kg/injection, schedule: Q01DX001 (ip), vehicle: Klucel (hydroxypropylcellulose) (HPC) 106 % of control | dose: 350.0 mg/kg/injection, schedule: Q01DX001 (ip), vehicle: Klucel (hydroxypropylcellulose) (HPC) 98 % of control

CC(=O)NC(CSSCC(NC(C)=O)C(=O)OC(C)=O)C(=O)O (stereo unspecified)
inactive: dose: 25.0 mg/kg/injection, schedule: Q01DX001 (ip), vehicle: saline 102 % of control | dose: 50.0 mg/kg/injection, schedule: Q01DX001 (ip), vehicle: saline 96 % of control | [14] 93 % of control
